Key:
[1] = system: patients with rheumatoid arthritis; experiment: Phase II clinical study: adverse (reverse) drug effects and drug toleration; format: in vivo, human
Procedure: (§1) It was a multiple-centered, randomized, parallel, positive controlled Phrase II clinical study.
The eneral condition of patients was evaluated on each visit and follow-up survey. Patients were inquired of symptoms and signs into a 26-item list of side effect. Once a possible side effect occurred, the relevant information as time, severity, frequency, duration, method used in release and its result were recorded by the doctor. […] A second disease occurred during the study was not counted in as a side effect. Index of overall side-effect is as below:
2=upset of medium severity, interfere with the daily life of patient
3=sever unwell, obviously affect a normal daily life and may need a bed rest.
4=life threatening side effect
Investigators should score individually on drug toleration in each patient after the test base on the following criteria:
0=bear sever side effect(s) and need to halt the test
1=side effects(s) of medium severity, relevant treatments is adopted.
2=mild side effect(s), no treatment was needed

[2] = system: patients with rheumatoid arthritis; experiment: Phase II clinical study: laboratory tests and immune system perimeters; format: in vivo, human; parameters: ESR / CRP / RF / Ig A / Ig G / Laboratory blood tests: Hg / Laboratory blood tests: WBC / Laboratory blood tests: BP / Laboratory blood tests: Cr / Laboratory blood tests: BUN: unit not given here; conditions: for Laboratory blood tests: Hg / Laboratory blood tests: WBC / Laboratory blood tests: BP / Laboratory blood tests: BUN / Laboratory blood tests: Cr / Laboratory blood tests: GPT: overall group
From the text: as §1
10) Routine blood and urine exam: Hemoglobin, platelet count, biochemical serum test and routine urine test
11) Blood Sedimentation (Norm. M: 15 mm/hr F: 20 mm/hr)
12) Serum Rheumatoid Factor (Method: Latex Agglutination Test, LAT): The maximum titer value were required for positive reaction patients. All centers use the same standard agents in one product batch.
13) C-reactive protein (quantitative method): All centers use the same standard agents in one product batch.

[3] = double-blind, 4 weeks, column 1
[4] = double-blind, 12 weeks, column 1
[5] = double-blind, 12 weeks, column 2
[6] = overall group, 4 weeks, column 1
[7] = overall group, 4 weeks, column 2
[8] = overall group, 4 weeks, column 3
[9] = overall group, 8 weeks, column 1
[10] = overall group, 8 weeks, column 2
[11] = overall group, 8 weeks, column 3
[12] = overall group, 12 weeks, column 1
[13] = overall group, 12 weeks, column 2
[14] = overall group, 24 weeks, column 1
[15] = overall group, 24 weeks, column 2
[16] = 4 weeks (row order of Table 65)
[17] = 8 weeks (row order of Table 65)
[18] = 12 weeks (row order of Table 65)
[19] = 24 weeks (row order of Table 65)
[20] = 4 weeks (row order of Table 67)
[21] = 8 weeks (row order of Table 67)
[22] = 12 weeks (row order of Table 67)
[23] = 24 weeks (row order of Table 67)
[24] = period of treatment 0 (row order of Table 67)
[25] = period of treatment 0 (row order of Table 65)

## CN(Cc1cnc2nc(N)nc(N)c2n1)c1ccc(C(=O)N[C@@H](CCC(=O)O)C(=O)O)cc1 [MTX, Methotrexate]
[1]; [3]
  Events of reverse drug effects: Dizziness: 3
  Events of reverse drug effects: Headache: 1
[1]; [4]
  Events of reverse drug effects: Bad appetite: 2
  Events of reverse drug effects: Dizziness: 1
  Events of reverse drug effects: Frequency of micturition: 1
  Events of reverse drug effects: Headache: 1
  Events of reverse drug effects: Lethargy: 1
  Events of reverse drug effects: Nausea: 4
[1]; [5]
  Events of reverse drug effects: Bad appetite: 2
  Events of reverse drug effects: Insomnia: 1
  Events of reverse drug effects: Nausea: 4
[1]; [6]
  Events of reverse drug effects: Abd distension: 7
  Events of reverse drug effects: Bad appetite: 27
  Events of reverse drug effects: Burning heart: 1
  Events of reverse drug effects: Constipation: 3
  Events of reverse drug effects: Diarrhea: 1
  Events of reverse drug effects: Dizziness: 6
  Events of reverse drug effects: Headache: 1
  Events of reverse drug effects: Lethargy: 1
  Events of reverse drug effects: Nausea: 14
  Events of reverse drug effects: Palpitation: 3
  Events of reverse drug effects: Stomachache: 1
  Events of reverse drug effects: Stomatitis: 2
  Events of reverse drug effects: Vomiting: 3
[1]; [7]
  Events of reverse drug effects: Abd distension: 5
  Events of reverse drug effects: Bad appetite: 3
  Events of reverse drug effects: Diarrhea: 1
  Events of reverse drug effects: Headache: 1
  Events of reverse drug effects: Nausea: 8
  Events of reverse drug effects: Stomachache: 1
[1]; [8]
  Events of reverse drug effects: Burning heart: 2
  Events of reverse drug effects: Stomachache: 1
[1]; [9]
  Events of reverse drug effects: Abd distension: 11
  Events of reverse drug effects: Bad appetite: 28
  Events of reverse drug effects: Burning heart: 3
  Events of reverse drug effects: Constipation: 3
  Events of reverse drug effects: Diarrhea: 1
  Events of reverse drug effects: Dizziness: 4
  Events of reverse drug effects: Headache: 2
  Events of reverse drug effects: Insomnia: 5
  Events of reverse drug effects: Lethargy: 2
  Events of reverse drug effects: Nausea: 16
  Events of reverse drug effects: Palpitation: 3
  Events of reverse drug effects: Stomatitis: 9
  Events of reverse drug effects: Vomiting: 2
[1]; [10]
  Events of reverse drug effects: Abd distension: 4
  Events of reverse drug effects: Bad appetite: 5
  Events of reverse drug effects: Burning heart: 1
  Events of reverse drug effects: Headache: 1
  Events of reverse drug effects: Nausea: 7
  Events of reverse drug effects: Skin rash: 1
  Events of reverse drug effects: Stomatitis: 1
  Events of reverse drug effects: Vomiting: 1
[1]; [11]
  Events of reverse drug effects: Abd distension: 1
  Events of reverse drug effects: Bad appetite: 1
  Events of reverse drug effects: Burning heart: 1
  Events of reverse drug effects: Constipation: 1
[1]; [12]
  Events of reverse drug effects: Abd distension: 15
  Events of reverse drug effects: Bad appetite: 35
  Events of reverse drug effects: Burning heart: 2
  Events of reverse drug effects: Constipation: 2
  Events of reverse drug effects: Diarrhea: 1
  Events of reverse drug effects: Dizziness: 4
  Events of reverse drug effects: Headache: 2
  Events of reverse drug effects: Insomnia: 5
  Events of reverse drug effects: Lethargy: 1
  Events of reverse drug effects: Nausea: 25
  Events of reverse drug effects: Palpitation: 2
  Events of reverse drug effects: Skin rash: 1
  Events of reverse drug effects: Stomatitis: 9
  Events of reverse drug effects: Vomiting: 3
[1]; [13]
  Events of reverse drug effects: Abd distension: 4
  Events of reverse drug effects: Bad appetite: 3
  Events of reverse drug effects: Headache: 1
  Events of reverse drug effects: Insomnia: 1
  Events of reverse drug effects: Nausea: 10
  Events of reverse drug effects: Stomatitis: 1
[1]; overall group, 12 weeks, column 3
  Events of reverse drug effects: Burning heart: 1
[1]; [14]
  Events of reverse drug effects: Bad appetite: 3
  Events of reverse drug effects: Dizziness: 1
  Events of reverse drug effects: Headache: 2
  Events of reverse drug effects: Insomnia: 1
  Events of reverse drug effects: Nausea: 7
  Events of reverse drug effects: Vomiting: 2
[1]; [15]
  Events of reverse drug effects: Insomnia: 1
  Events of reverse drug effects: Nausea: 2
  Events of reverse drug effects: Vomiting: 1
[2]; 4 weeks
  CRP: 27.97 ± 21.12
  ESR: 42.11 ± 38.68
  Laboratory blood tests: Hg: 10.96 ± 3.65
  Laboratory blood tests: WBC: 7.47 ± 2.09
[2]; [16]
  Ig A: 3.64 ± 3.54
  Ig G: 17.40 ± 6.59
  RF: 1.87 ± 0.62
[2]; 8 weeks
  CRP: 25.72 ± 19.42
  ESR: 44.92 ± 78.36
  Laboratory blood tests: Hg: 9.26 ± 3.09
  Laboratory blood tests: WBC: 8.47 ± 2.82
[2]; [17]
  Ig A: 3.98 ± 3.56
  Ig G: 17.62 ± 6.37
  Ig M: 2.76 ± 2.24
  RF: 1.59 ± 0.61
[2]; 12 weeks
  CRP: 22.31 ± 18.91
  ESR: 29.96 ± 20.48
  Laboratory blood tests: Hg: 9.24 ± 2.98
  Laboratory blood tests: WBC: 8.42 ± 2.57
[2]; [18]
  Ig A: 3.39 ± 3.15
  Ig G: 16.47 ± 5.92
  RF: 1.72 ± 0.56
[2]; 24 weeks
  CRP: 27.12 ± 22.39
  ESR: 28.66 ± 20.96
  Laboratory blood tests: Hg: 10.78 ± 3.10
  Laboratory blood tests: WBC: 7.28 ± 2.67
[2]; [19]
  Ig A: 2.35 ± 1.55
  Ig G: 15.26 ± 6.37
  Ig M: 1.57 ± 0.79
  RF: 1.74 ± 0.63
[2]; [20]
  Laboratory blood tests: BP: 94.28 ± 31.42
  Laboratory blood tests: BUN: 3.32 ± 1.11
  Laboratory blood tests: Cr: 82.82 ± 27.64
  Laboratory blood tests: GPT: Norm.
[2]; [21]
  Laboratory blood tests: BP: 108.73 ± 36.21
  Laboratory blood tests: BUN: 1.97 ± 0.65
  Laboratory blood tests: Cr: 98.89 ± 32.93
  Laboratory blood tests: GPT: Norm.
[2]; [22]
  Laboratory blood tests: BP: 110.66 ± 37.48
  Laboratory blood tests: BUN: 1.82 ± 0.47
  Laboratory blood tests: Cr: 102.03 ± 36.86
  Laboratory blood tests: GPT: Norm.
[2]; [23]
  Laboratory blood tests: BP: 168.48 ± 30.78
  Laboratory blood tests: BUN: 3.38 ± 1.01
  Laboratory blood tests: Cr: 78.66 ± 26.42
  Laboratory blood tests: GPT: Norm.
[2]; period of treatment 0
  Laboratory blood tests: Hg: 11.28 ± 3.72
  Laboratory blood tests: WBC: 7.96 ± 2.61
  CRP: 32.01 ± 22.75
  ESR: 47.11 ± 26.19
[2]; [24]
  Laboratory blood tests: BP: 98.97 ± 32.86
  Laboratory blood tests: BUN: 3.96 ± 1.32
  Laboratory blood tests: Cr: 74.86 ± 28.28
  Laboratory blood tests: GPT: Norm.
[2]; [25]
  Ig A: 3.62 ± 3.42
  Ig G: 18.13 ± 7.12
  RF: 1.93 ± 0.61

— patent US20030232102A1, “Total glycosides of paeony, method to prepare the same and uses thereof” (priority 2001, published 2003)
